From paper PMC13083723 (Patterns, 2026)

Each compound was assayed on Vero-E6 cells (assay: cells). Conditions: not given.
Assay type: cell-based

| SMILES | PL_Result |
| --- | --- |
| CCOc1ccccc1O[C@@H](c1ccccc1)[C@@H]1CNCCO1.CCOc1ccccc1O[C@H](c1ccccc1)[C@H]1CNCCO1 [SPE_A43974499] | 14.61 |

Same assay, conditions: Chlorocebus sabaeus, Vero C1008, 24 h, read-out: PL_Result

| SMILES | activation at 10 µM |
| --- | --- |
| C[N+]1(C)CCc2cc3c(cc2[C@H]1[C@@H]1OC(=O)c2c1ccc1c2OCO1)OCO3 [SPE_A57798559] | -11.7% |
| C=C(C)[C@@H]1CC[C@]2(C(=O)O)CC[C@]3(C)[C@H](CC[C@@H]4[C@@]5(C)CC[C@H](O)C(C)(C)[C@@H]5CC[C@]43C)[C@@H]12 [SPE_K45401373] | -11.4% |
| CC1Cc2ccccc2N1NC(=O)c1ccc(Cl)c(S(N)(=O)=O)c1 (stereo not shown) [SPE_A95869247] | -11.5% |
| CN(C)CCc1c[nH]c2ccc(CS(=O)(=O)N3CCCC3)cc12 [SPE_K67601717] | -4.95% |
| OC(c1ccccc1)C1CCN(CCc2ccccc2)CC1 (stereo not shown) [SPE_A62057054] | 3.01% |
| NNC(=O)c1ccncc1 [SPE_K87202646] | 0.348% |
| Cn1c(=O)[nH]c2ncn(C)c2c1=O [SPE_K24084088] | -5.64% |
| CCOCCn1c(C2CCN(CCc3ccc(C(C)(C)C(=O)O)cc3)CC2)nc2ccccc21 [SPE_K51937257] | -5.44% |
| COc1cc2ncn(-c3cc(OCc4ccccc4C(F)(F)F)c(C(N)=O)s3)c2cc1OC [SPE_K90382497] | -7.16% |
| Cc1ncc(CO)c(C=O)c1O [SPE_K76204040] | -1.79% |
| CC[n+]1c(-c2ccccc2)c2cc(N)ccc2c2ccc(N)cc21 [SPE_K28354016] | 9.76% |
| Cc1nc(NC(=O)N2CCC[C@H]2C(N)=O)sc1-c1ccnc(C(C)(C)C(F)(F)F)c1 [SPE_K54997624] | 12.6% |
| C/C(=C\c1csc(C)n1)[C@@H]1C[C@@H]2O[C@]2(C)CCC[C@H](C)[C@H](O)[C@@H](C)C(=O)C(C)(C)[C@@H](O)CC(=O)N1 [SPE_K03601870] | -10.6% |
| COc1ccc2c(c1)nc([S+]([O-])Cc1ncc(C)c(OC)c1C)[n]2[Mg][n]1c([S+]([O-])Cc2ncc(C)c(OC)c2C)nc2cc(OC)ccc21 (stereo not shown) [SPE_A56892734] | -9.5% |
| CC(=O)Nc1ccc(C(=O)O)cc1 [SPE_K47195926] | 3.66% |
| Cc1cccc(Nc2ccncc2S(=O)(=O)NC(=O)NC(C)C)c1 [SPE_K30480208] | -3.18% |
| CCOC(=O)Nc1ccc2c(c1)N(C(=O)CN(CC)CC)c1ccccc1CC2 [SPE_K24570280] | 3.49% |
| CN(C)CCOC(c1ccc(Cl)cc1)c1ccccn1 (stereo not shown) [SPE_A29426959] | -7.35% |
| CC[N+](CC)(CC)CCOc1ccc(/C=C/c2ccccc2)cc1 [SPE_K03128577] | 8.41% |
| Cc1c(N(C)C)c(=O)n(-c2ccccc2)n1C [SPE_K12568846] | -3.72% |
| CN(C(=O)c1ccc(F)cc1C(F)(F)F)C1CCN(c2nnc(-c3ccnn3C)c3ccccc23)CC1 [SPE_K50498985] | -8% |

| SMILES | activation at 10 µM |
| --- | --- |
| CCCNC(=O)N1N=C(c2ccc(N)cc2)c2cc3c(cc2C1C)OCO3 (stereo not shown) [SPE_A77218119] | 7.61% |
| C[C@]12CC[C@H](O)C[C@H]1CC[C@@H]1[C@@H]2CC[C@]2(C)[C@@](O)(c3ccoc3)CC[C@]12O [SPE_K11672787] | -0.921% |
| Clc1ccc(C(Cn2ccnc2)OCc2ccsc2Cl)c(Cl)c1 (stereo not shown) [SPE_A33084557] | 4.51% |
| CC(=O)Nc1ccc(CC(=O)O)cc1 [SPE_K33483813] | 2.74% |
| CCCCN(CCCC)C(=O)CN1C[C@H](c2ccc3c(c2)OCO3)[C@@H](C(=O)O)[C@@H]1c1ccc(OC)cc1 [SPE_K16295392] | -6.93% |
| NC[C@H](CC(=O)O)c1ccc(Cl)cc1 [SPE_K62353271] | -10.2% |
| O=C(NCCN1CCC2(CC1)C(=O)NCN2c1cccc(F)c1)c1ccc2ccccc2c1 [SPE_K93317811] | 113% |
| O=S(=O)(c1cccc2c(O)nccc12)N1CCCNCC1 [SPE_K77793136] | -5.16% |
| CCc1ccc(C(=O)C(C)CN2CCCCC2)cc1 (stereo not shown) [SPE_A04252265] | -4.05% |
| Cc1nc(-c2cn3c(n2)-c2ccc(-c4cnn(C(C)(C)C(N)=O)c4)cc2OCC3)n(C(C)C)n1 [SPE_K44844162] | 4.98% |
| O=C(Oc1cc(S(=O)(=O)c2ccccc2)ccc1[N+](=O)[O-])c1ccc(Cl)cc1 [SPE_K37933329] | -5.26% |
| CCCCC/C=C\C=C/CCCCCCCCC(=O)O [SPE_K26222048] | -6.49% |
| C#C[C@]1(O)CC[C@H]2[C@@H]3CCC4=CC(=O)CCC4=C3C=C[C@@]21CC [SPE_K97472745] | -10.6% |
| CNC(=O)c1c(C)oc2cc(Oc3ncnc4cc(OC)c(OC)cc34)ccc12 [SPE_K70504253] | 8.27% |
| NCC(=O)Nc1ccc(-n2nc(C(F)(F)F)cc2-c2ccc3c(ccc4ccccc43)c2)cc1 [SPE_K90497590] | -14.6% |
| COc1cc(C(=S)N2CCOCC2)cc(OC)c1OC [SPE_K29570907] | -7.35% |
| O=C(O)CCCCN(CCc1ccccc1OCc1ccc(CCc2ccccc2)cc1)Cc1ccc(C(=O)O)cc1 [SPE_K73440166] | 2.18% |
| COc1ccc(CNC(=O)Nc2ncc([N+](=O)[O-])s2)cc1 [SPE_K67860401] | -8.12% |
| CCOC(=O)Nc1ccc2c(c1)N(C(=O)CCN(CC)CC)c1ccccc1S2 [SPE_K10667240] | -10.8% |
| O=[N+]([O-])c1ncc[nH]1 [SPE_K26824830] | -1.75% |
| NC1CCN(c2cccnc2)C1 (stereo not shown) [SPE_A29844814] | -9.03% |

| SMILES | activation at 10 µM |
| --- | --- |
| OC[C@H]1O[C@@H](OCCc2ccc(O)cc2)[C@H](O)[C@@H](O)[C@@H]1O [SPE_K66030860] | -4.58% |
| COc1ccc(Nc2ncnc3ccc(OC)cc23)cc1 [SPE_K87696786] | -2.62% |
| COc1ccc([C@H]2CNC(=O)C2)cc1OC1CCCC1 [SPE_K65856711] | -5.06% |
| NS(=O)(=O)c1ccc(-n2nc(C(F)(F)F)cc2-c2ccc(Cl)cc2)cc1 [SPE_K76365178] | -2.4% |
| O=C(O)c1ccccc1-c1ccc(C(F)(F)F)cc1 [SPE_K99506538] | 0.609% |
| CC(CCCCC(=O)Nc1ccc(C(F)(F)F)cc1)NCCc1c[nH]cn1 (stereo not shown) [SPE_A66435872] | 38.2% |
| O=C(NCc1ccc(F)cc1)N1CCN2C(=O)OC(c3ccccc3)(c3ccccc3)C2C1 (stereo not shown) [SPE_A63344375] | -2.64% |
| Cc1ccc(=O)n(-c2ccccc2)c1 [SPE_K96862998] | 4.03% |
| O=C(O)CCCNC(=O)c1cccnc1 [SPE_K56691760] | 0.477% |
| S=c1[nH]cnc2nc[nH]c12 [SPE_K91601245] | -8.41% |
| C[C@@H]1CN(Cc2ncccn2)C[C@H]1c1nc2c(cnn2C2CCOCC2)c(=O)[nH]1 [SPE_K50031829] | -10.7% |
| COc1ccc(C(=O)/C(Cc2cc(OC)c(OC)c(OC)c2)=C(\C(=O)O)c2ccc3c(c2)OCO3)cc1 [SPE_K13826399] | 12.9% |
| Cn1ncnc1COc1nn2c(-c3cc(F)ccc3F)nnc2cc1C(C)(C)C [SPE_K46647427] | -14.8% |
| COCCN1CCC(C(=O)NO)(S(=O)(=O)c2ccc(Oc3ccc(OC(F)(F)F)cc3)cc2)CC1 [SPE_K51102532] | -13.6% |
| CC(C)COC(=O)c1ccc(N)cc1 [SPE_K96714749] | 1.09% |
| CC(C)[C@]12O[C@H]1[C@@H]1O[C@]13[C@]1(O[C@H]1C[C@H]1C4=C(CC[C@@]13C)C(=O)OC4)[C@@H]2O [SPE_K81258678] | -5.53% |
| CC1(C)S[C@@H]2[C@H](NC(=O)C(C(=O)O)c3ccsc3)C(=O)N2[C@H]1C(=O)O (stereo partly shown) [SPE_A55051145] | -6.58% |
| Nc1c(S(=O)(=O)O)cc(Nc2cccc3ccccc23)c2c1C(=O)c1ccccc1C2=O [SPE_K71266197] | -13.9% |
| CCN(CC)Cc1ccc(C(=O)N(CCc2ccccc2OC)[C@@H]2CCNC2)cc1 [SPE_K11821338] | -4.98% |
| CS(=O)(=O)c1ccc(-c2cnc(NCc3ccco3)n3cnnc23)cc1 [SPE_K19002914] | 5.68% |
| CC(C)[C@@H](N)C(=O)O [SPE_K59424860] | 0.189% |

| SMILES | activation at 10 µM |
| --- | --- |
| O=C(O)CCCCC(=O)O [SPE_K10656395] | 4.52% |
| Clc1ccc(C(Cn2ccnc2)OCc2ccc(Sc3ccccc3)cc2)c(Cl)c1 (stereo not shown) [SPE_A33697453] | 17.3% |
| NCCc1ccc(O)c(O)c1 [SPE_K43887077] | -4.01% |
| O=C1N=C2NN=CC2C(=O)N1 (stereo not shown) [SPE_K31841515] | 2.22% |
| COc1cc2c(cc1OC)-c1cc3ccc(OC)c(OC)c3c[n+]1CC2 [SPE_K58466253] | 0.986% |
| CC(=O)Nc1nc(C)c(-c2ccc(Cl)c(S(=O)(=O)NCCO)c2)s1 [SPE_K29395450] | -9.8% |
| CS(=O)(=O)Nc1ccc([N+](=O)[O-])cc1Oc1ccccc1 [SPE_K76775527] | -12.8% |
| CCC1NC(=O)c2cc(S(N)(=O)=O)c(Cl)cc2N1 (stereo not shown) [SPE_A59303141] | -4.81% |
| COc1cc(/C=C/C(=O)O)ccc1O [SPE_K66295376] | -10.8% |
| Cc1cccc(C)c1NC(=O)CN1CCN(CCCC(c2ccc(F)cc2)c2ccc(F)cc2)CC1 [SPE_K62996583] | 90.9% |
| O=C(O)c1ccc(-c2c[nH]c3ncc(-c4ccccc4)cc23)cc1C1CCCC1 [SPE_K14991967] | -4.54% |
| CC(C)[C@@H](C)/C=C/[C@@H](C)[C@H]1CC[C@H]2C3=CC=C4C[C@@H](O)CC[C@]4(C)[C@H]3CC[C@]12C [SPE_K09161066] | -4.6% |
| CCC(C)(C)C(=O)C(=O)N1CCC[C@H]1C(=O)OCCCc1cccnc1 [SPE_K44869961] | 2.45% |
| COc1ccc(OC)c(C(O)CNC(=O)CN)c1 (stereo not shown) [SPE_A79981887] | 8.02% |
| Cc1nnc(C(C)C)n1C1CC2CCC(C1)N2CC[C@H](NC(=O)C1CCC(F)(F)CC1)c1ccccc1 (stereo partly shown) [SPE_A04352665] | -15.3% |
| Cc1ccc(C(=O)Nc2ccc(CN3CCN(C)CC3)c(C(F)(F)F)c2)cc1C#Cc1cnc2[nH]ncc2c1 [SPE_K35329391] | -3.83% |
| Oc1cc(O)c2c(c1)O[C@H](c1ccc(O)c(O)c1)[C@@H](O)C2 [SPE_K58736316] | -12.2% |
| CCN(CCCOc1ccc2c(Nc3cc(CC(=O)Nc4cccc(F)c4)[nH]n3)ncnc2c1)CCOP(=O)(O)O [SPE_K31928526] | -11.2% |
